Test systems include NCI-H460; HL-60; OVCAR-5; A498; SK-OV-3; HCT-15; RXF 393; MOLT-4; SNB-75; MDA-MB-435; MCF7; M14; OVCAR-8; K562; LOX IMVI; KM12; 786-0; NCI-H522; NCI-H23; HOP-62.
Experiment in all cases: NCI anticancer screen, dose series, 48 h

Each structure is given as a SMILES string.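 Exposure lasted 48 hours, with cells grown in 96-well plates and compounds tested at five concentrations. GI50 is the concentration that inhibits growth by half.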 The source made the active and inactive calls. Rule as the data show it: active = GI50 up to about 1.1 µM and inactive = higher.

With `Cc1ccc(S(=O)(=O)N2CCC[C@@H]2C(=O)O[C@@H]2CCC3CC=CC32)cc1` (stereo partly drawn), the GI50 in the assay with NCI-H460 is 35.6 µM (inactive); with HL-60, 11.5 µM (inactive); in the assay with OVCAR-5 it was 45.8 µM (inactive); in the assay on A498, 24.8 µM (inactive); with SK-OV-3, 22.2 µM (inactive); with HCT-15 it was 32.7 µM. Further, the GI50 is 20 µM (inactive) in the assay with RXF 393; 17.6 µM (inactive) with MOLT-4; 26.1 µM (inactive) with SNB-75; 35.1 µM (inactive) in the assay with MDA-MB-435; 33.9 µM (inactive) with MCF7; 34.6 µM (inactive) with M14. The GI50 with OVCAR-8 was 34.4 µM (inactive); in the assay with K562, 14 µM (inactive); with LOX IMVI, 16.1 µM (inactive); with KM12, 28.3 µM (inactive); in the assay with 786-0, 19.9 µM (inactive); in the assay on NCI-H522 it was 18.9 µM (inactive). The GI50 is 35.1 µM (inactive) with NCI-H23 and 29.9 µM (inactive) in the assay on HOP-62.

In the case of `CC1(c2ccccc2)N=c2[nH]cnc2=C(C(N)=O)N1` (stereo not drawn), the GI50 in the assay with NCI-H460 is > 100 µM (inactive); in the assay on HL-60 it was > 100 µM (inactive); with OVCAR-5 it was > 100 µM (inactive); in the assay on A498 it was > 100 µM (inactive); in the assay with SK-OV-3, > 100 µM (inactive); in the assay with HCT-15, greater than 100 µM. Moreover, the GI50 with RXF 393, in the assay with SNB-75, in the assay on MDA-MB-435, in the assay with MCF7, with M14 and with OVCAR-8 was > 100 µM (inactive) each time. Also, the GI50 with K562, with LOX IMVI, in the assay with KM12, with 786-0, in the assay on NCI-H522 and in the assay with NCI-H23 was > 100 µM (inactive) throughout. In the assay on HOP-62, the GI50 is > 100 µM (inactive).

As to `C[n+]1c2ccccc2n2c3ccccc3c(NCCc3ccccn3)c(C#N)c21`, the GI50 with NCI-H460 was 1.04 µM (active); in the assay on HL-60 it was 3.13 µM (inactive); in the assay on OVCAR-5, 2 µM (inactive); in the assay on A498, 4.4 µM (inactive); with SK-OV-3, 3.4 µM (inactive); with HCT-15, 2.33 µM. Besides, the GI50 in the assay on RXF 393 is 1.01 µM (active); in the assay on MOLT-4, 1 µM (active); in the assay on SNB-75, 1.38 µM (inactive); with MDA-MB-435, 1.47 µM (inactive); in the assay with MCF7 it was 0.249 µM (active); in the assay with M14, 2.38 µM (inactive). Moreover, the GI50 was 1.18 µM (inactive) in the assay on OVCAR-8; 2.21 µM (inactive) in the assay on K562; 1.17 µM (inactive) in the assay on LOX IMVI; 2.47 µM (inactive) in the assay with KM12; 1.58 µM (inactive) in the assay with 786-0; 0.828 µM (active) in the assay with NCI-H522. Besides, the figures for the GI50 in the assay with NCI-H23 and in the assay with HOP-62 were 2.56 µM (inactive) and 2.11 µM (inactive), respectively.

With `CC[C@]1(Cc2ccc(OC)c(OC)c2)C=[N+]([O-])O[C@H](OC2CCCCC2c2ccccc2)[C@@H]1OC(C)=O` (stereo partly drawn), the GI50 in the assay with NCI-H460 is 37.5 µM (inactive); with HL-60, 18.1 µM (inactive); in the assay on OVCAR-5, > 100 µM (inactive); with A498, > 100 µM (inactive); with SK-OV-3 it was 84.9 µM (inactive); with HCT-15, 37.2 µM. The GI50 in the assay with RXF 393 is 22.5 µM (inactive); in the assay on MOLT-4 it was 17.3 µM (inactive); with SNB-75 it was 32.2 µM (inactive); with MDA-MB-435, 50.6 µM (inactive); in the assay with MCF7, 28.8 µM (inactive); in the assay on M14, 45.3 µM (inactive). Moreover, the GI50 is 50.6 µM (inactive) with OVCAR-8; 30.8 µM (inactive) with K562; 40.9 µM (inactive) in the assay with LOX IMVI; 39.6 µM (inactive) with KM12; 45.3 µM (inactive) in the assay with 786-0; 25.6 µM (inactive) in the assay on NCI-H522. The GI50 with NCI-H23 was 56.1 µM (inactive); in the assay on HOP-62, 64.6 µM (inactive).

In the case of `Cc1cc2[nH]c(=NS(=O)(=O)c3cc(C)c(Cl)cc3S)[nH]c2cc1C`, the GI50 was 16.9 µM (inactive) in the assay on NCI-H460; 28.7 µM (inactive) in the assay on HL-60; > 100 µM (inactive) in the assay with OVCAR-5; > 100 µM (inactive) in the assay with A498; > 100 µM (inactive) in the assay with SK-OV-3; 73.3 µM in the assay with HCT-15. The GI50 was > 100 µM (inactive) with RXF 393; 21.5 µM (inactive) in the assay with MOLT-4; > 100 µM (inactive) in the assay on SNB-75; 65.5 µM (inactive) with MDA-MB-435; 60.8 µM (inactive) in the assay with MCF7; 86.5 µM (inactive) in the assay with M14. Also, the GI50 was 77.3 µM (inactive) with OVCAR-8; 59.7 µM (inactive) with K562; 28.9 µM (inactive) in the assay with LOX IMVI; 46.2 µM (inactive) in the assay on KM12; 61.7 µM (inactive) in the assay on 786-0; > 100 µM (inactive) with NCI-H522. Besides, the figures for the GI50 with NCI-H23 and in the assay with HOP-62 were > 100 µM (inactive) and 23.1 µM (inactive), respectively.

Turning to `O=C1c2ccccc2CC12Cc1ccccc1C2`, the GI50 is 57.9 µM (inactive) in the assay on NCI-H460; 16.6 µM (inactive) in the assay with HL-60; > 100 µM (inactive) in the assay on OVCAR-5; > 100 µM (inactive) with A498; > 100 µM (inactive) with SK-OV-3; 49.7 µM in the assay on HCT-15. For the same compound, the GI50 in the assay with RXF 393 was 20.6 µM (inactive); in the assay on MOLT-4, 35.7 µM (inactive); in the assay on SNB-75 it was 18.2 µM (inactive); in the assay on MDA-MB-435, 55 µM (inactive); with MCF7, 53.5 µM (inactive); with M14, 49.1 µM (inactive). Besides, the GI50 in the assay on OVCAR-8 is 80.4 µM (inactive); in the assay on K562 it was 34.8 µM (inactive); in the assay with LOX IMVI it was 35.8 µM (inactive); with KM12, 44.9 µM (inactive); with 786-0, 36 µM (inactive); with NCI-H522 it was 36.6 µM (inactive). The figures for the GI50 in the assay on NCI-H23 and in the assay with HOP-62 were > 100 µM (inactive) and 83.9 µM (inactive), respectively.

Turning to `CCOC(=O)Cc1nc2sc(S(N)(=O)=O)nn2c1Br`, the GI50 is 32 µM (inactive) in the assay on NCI-H460; 25.5 µM (inactive) in the assay with HL-60; 22.1 µM (inactive) with OVCAR-5; 26.5 µM (inactive) with A498; > 100 µM (inactive) in the assay on SK-OV-3; 23.7 µM in the assay on HCT-15. Moreover, the GI50 was 21.7 µM (inactive) with RXF 393; 32.1 µM (inactive) with SNB-75; 38.7 µM (inactive) in the assay with MDA-MB-435; 24.7 µM (inactive) with MCF7; 15.7 µM (inactive) in the assay with M14; 21.3 µM (inactive) in the assay on OVCAR-8. Further, the GI50 is 41.5 µM (inactive) with K562; 16.1 µM (inactive) with LOX IMVI; 32.3 µM (inactive) in the assay on KM12; 23.2 µM (inactive) with 786-0; 19.1 µM (inactive) in the assay with NCI-H522; 27.6 µM (inactive) in the assay with NCI-H23. Besides, in the assay with HOP-62, the GI50 is > 100 µM (inactive).

As to `COC1=C(C)C(=O)C2=C(C1=O)C1C3CC4=C(C(=O)C(OC)=C(C)C4=O)C(CNC(=O)C(C)O)N3C(C#N)C(C2)N1C` (stereo not drawn), the GI50 in the assay with NCI-H460 was 0.0159 µM (active); in the assay with HL-60, < 0.01 µM (active); in the assay on OVCAR-5, 0.0269 µM (active); with A498 it was 0.0107 µM (active); in the assay on SK-OV-3, 0.0673 µM (active); with HCT-15, 0.0169 µM. The GI50 in the assay with RXF 393 was < 0.0121 µM (active); in the assay on MOLT-4, < 0.01 µM (active); in the assay on SNB-75, < 0.0104 µM (active); in the assay with MDA-MB-435, < 0.01 µM (active); in the assay with MCF7, < 0.01 µM (active); in the assay on M14, < 0.0112 µM (active). In addition, the GI50 in the assay on OVCAR-8 is < 0.01 µM (active); with K562, < 0.01 µM (active); in the assay with LOX IMVI, < 0.01 µM (active); in the assay with KM12, 0.0119 µM (active); in the assay on 786-0 it was < 0.0113 µM (active); in the assay on NCI-H522, < 0.01 µM (active). Further, the figures for the GI50 with NCI-H23 and in the assay with HOP-62 were < 0.0178 µM (active) and 0.0149 µM (active), respectively.

Regarding `CC(C)(C)CC(C)(C)NC(=S)NO`, the GI50 in the assay with NCI-H460 is > 100 µM (inactive); with HL-60 it was > 100 µM (inactive); with OVCAR-5, > 100 µM (inactive); in the assay on A498, > 100 µM (inactive); in the assay with SK-OV-3, > 100 µM (inactive); with HCT-15, greater than 100 µM. For the same compound, the GI50 in the assay on RXF 393, with MOLT-4, in the assay with SNB-75, with MDA-MB-435, in the assay with MCF7 and with M14 was > 100 µM (inactive) throughout. For the same compound, the GI50 in the assay with OVCAR-8, in the assay on K562, in the assay on LOX IMVI, in the assay with KM12, in the assay with 786-0 and in the assay with NCI-H522 was > 100 µM (inactive) throughout. Moreover, the GI50 in the assay on NCI-H23 and in the assay on HOP-62 was > 100 µM (inactive) in each case.

With `CNC(=S)N/N=C/c1cccc(C)n1`, the GI50 in the assay with NCI-H460 is 19.9 µM (inactive); in the assay with HL-60 it was > 45.5 µM (inactive); in the assay with OVCAR-5, 37.8 µM (inactive); with A498, 20.7 µM (inactive); with SK-OV-3 it was 37.2 µM (inactive); with HCT-15, 26 µM. The GI50 in the assay on RXF 393 is 38.5 µM (inactive); with MOLT-4 it was 39.8 µM (inactive); in the assay with SNB-75, 37.9 µM (inactive); with MDA-MB-435 it was 45 µM (inactive); with MCF7, 38.6 µM (inactive); in the assay on M14, 21.3 µM (inactive). Also, the GI50 in the assay with OVCAR-8 is 23.6 µM (inactive); in the assay with K562, 42.8 µM (inactive); in the assay with LOX IMVI, 24.7 µM (inactive); with KM12 it was 61.1 µM (inactive); in the assay with 786-0, 24.6 µM (inactive); with NCI-H522 it was 27.2 µM (inactive). Moreover, the figures for the GI50 with NCI-H23 and in the assay on HOP-62 were 31.4 µM (inactive) and 20.7 µM (inactive), respectively.

Source of the values: ChEMBL document CHEMBL1201862, “PubChem BioAssay data set” (2004).
